Columns and labels:
[1] = Radiochemical stability in physiological pH water environment; type: physicochemical; settings: radiochemical purity, pH 7, 37 °C, n = 1
Method: Quality control, i.e. radiochemical purity, of the ^68Ga-labelled PSMA inhibitors was evaluated by analytical high performance liquid chromatography (HPLC; Dionex UltiMate 3000, Thermo Scientific, Waltham, Massachusetts, USA) using the following equipment: ACE 3 C18 column; 150 × 3 mm, 3 μm (Advanced Chromatography Technologies Ltd, Aberdeen, UK), with gradient elution A: H2O/acetonitrile (ACN); B:0.1% trifluoroacetic acid (TFA)/H2O: 0–3 min, 0% ACN; 3–10 min, 0 − 50% ACN; 10–13 min, 50 − 80% ACN; 13–15 min, 80–0% ACN, for 15 min at a flow rate of 1 mL/min. Radiometric detection was performed using a GABI Star radiodetector (Raytest GmbH, Straubenhardt, Germany) and for chromatogram quantification Chromatography Data System (CDS) - Chromeleon software (Thermo Scientific, USA) was used. The actual sample injection was performed using a Hamilton microinjector (Hamilton, USA).
Radiochemical stability in a physiological pH water environment was determined as follows: 100 µL of acetate buffer (1.1 mol/L) was added to the labelled preparation and the pH was then checked with a pH indicator paper to be 7. The mixture was further incubated at 37 °C and after 30, 60 and 120 min, 10 µL aliquot was used for HPLC analysis of radiochemical purity.

[2] = test system: LNCaP tumour-bearing mice; test: Ex vivo biodistribution in LNCaP tumour-bearing mice; set-up: species or system SCID mice
Method: The eight-week-old male SCID mice (Charles River, Massachusetts, USA) were used to generate the mouse tumour model. The implantation of 10 million LNCaP cells (ATCC, Virginia, USA) per mouse in a 1:1 mixture of Matrigel matrix (Corning, New York, USA) was performed subcutaneously behind the right shoulder of the mouse. Tumours of adequate size, representing a volume of 100–300 mm³, were observed after five to six weeks.
Ex vivo biodistribution of PSMA inhibitors in tumor-bearing mice was conducted as follows. Concisely, 30 µL of acetate buffer was added to the each ⁶⁸Ga -labelled inhibitor, namely: ⁶⁸Ga-P15, ⁶⁸Ga-P16, ⁶⁸Ga-P19, and ⁶⁸Ga-PSMA-617 to achieve physiological pH. Mice were r.o. injected with 100 µL of labelled inhibitor (2 MBq, approximately 0.5 µg of the inhibitor). Animals were divided into two groups for biodistribution studies at 1 and 2 h after administration of the respective ^68Ga-labelled PSMA inhibitor. The animals were sacrificed and autopsied after euthanasia, and organs: spleen, pancreas, stomach, intestine, kidney, liver, heart, lung, muscle, bone, and tumour were collected in scintillation vials. The vials containing the samples were weighed and measured in a Wizard2 gamma counter (PerkinElmer, USA). The measured values were then adjusted for radionuclide decay and expressed as a percentage of administered dose per gram of organ (%ID/g). The NanoScan® hybrid Positron Emission Tomography/Computed Tomography (PET/CT) machine (Mediso, Budapest, Hungary) was used for in vivo imaging specifically whole-body helical PET/CT scans. Imaging settings were: single field of view (FOV) PET scans (98.5 mm) which took 10 min for each mouse and helical CT scans (50 kVp/980 µA, 720 projections) both took place one hour after the administration. Each mouse received an injection of approximately 10 MBq of tested radiopharmaceutical. To prevent the mice’s eyes from drying out during anaesthesia eye ointment (Ophthalmo-Azulen, Zentiva, CR) was applied. Image reconstruction was performed using Mediso Tera-Tomo 3D PET iterative reconstruction (Mediso Medical Imaging Systems, Budapest, Hungary). Both reconstruction and data evaluation were performed in Mediso InterView FUSION software (Mediso Medical Imaging Systems, Budapest, Hungary) (Mediso, Budapest, Hungary). Final images were normalised to injected activity and animal weight. All organs with radiopharmaceutical accumulation were roughly delineated on the images, while their SUVmax value was recorded. The SUV41% (Standardized Uptake Value 41%) was then calculated as 41% of each SUVmax value of given hotspot and the ROI was delineated based on this value (Boellaard et al. [2015]). All images were exported in maximum intensity projection (MIP) mode. The results from the ex vivo biodistribution study were subjected to statistical analysis, namely unpaired Student’s t-test (Microsoft Excel 365, USA).

[3] = one-hour p.i., mean ± SD, n = 4

Row | SMILES | Stability in Physiological pH (%) ([1]; incubation time 0 min) | Stability in Physiological pH (%) ([1]; incubation time 30 min) | Stability in Physiological pH (%) ([1]; incubation time 60 min) | Stability in Physiological pH (%) ([1]; incubation time 120 min) | tumour-to-muscle ratio, fold lower than [68Ga]Ga-PSMA-617 ([2]; Fig. 5) | tumour uptake, fold lower than [68Ga]Ga-P16 ([2]; one-hour p.i.) | tumour-to-muscle ratio of [68Ga]Ga-PSMA-617 relative to that of the inhibitor ([2]; one-hour p.i.) | tumour uptake, fold lower than [68Ga]Ga-P16 ([2]; two-hours p.i.) | Accumulation in the tumour ([2]; two-hours p.i., n = 4) | Accumulation in the spleen ([2]; one-hour p.i., n = 4) [% ID/g] | Accumulation in the spleen ([2]; two-hours p.i., n = 4) [% ID/g] | tumour-to-blood ratio, times higher than [68Ga]Ga-PSMA-617 ([2]; one hour after administration) | level in the kidney, times lower compared to [68Ga]Ga-PSMA-617 ([2]; one hour after administration, p < 0.05) | tumour-to-blood ratio [2, 3] | tumour-to-kidney ratio [2, 3] | Accumulation in the tumour ([2]; one-hour p.i., n = 4) [% ID/g] | tumour-to-kidney ratio ([2]; two hours post injection, mean ± SD, n = 4)
1 | O=C([O-])CN1CCN(CC(=O)[O-])CCN(CC(=O)N[C@H]2CC[C@H](NC(=O)[C@@H](Cc3ccc4ccccc4c3)NC(=O)CC[C@H](NC(=O)N[C@@H](CCC(=O)O)C(=O)O)C(=O)O)CC2)CCN(CC(=O)[O-])CC1.[68Ga+3] [[^68Ga]Ga-P15] | 99.0 | 98.8 | 98.7 | 99.2 | more than 7 fold | more than 5 fold | ~7.5 times | up to 10 fold | 0.5% | – | – | – | – | – | – | – | –
2 | O=C([O-])CN1CCN(CC(=O)[O-])CCN(CC(=O)N[C@H]2CC[C@H](NC(=O)[C@H](Cc3ccc4ccccc4c3)NC(=O)CC[C@H](NC(=O)N[C@@H](CCC(=O)O)C(=O)O)C(=O)O)CC2)CCN(CC(=O)[O-])CC1.[68Ga+3] [[^68Ga]Ga-P16] | 99.3 | 99.1 | 99.3 | 99.3 | – | – | more than twice | – | – | 7.7 | 9.6 | – | – | – | – | – | –
3 | O=C([O-])CN1CCN(CC(=O)[O-])CCN(CC(=O)NCc2ccc(C(=O)N[C@H](C(=O)NCCCC[C@H](NC(=O)N[C@@H](CCC(=O)O)C(=O)O)C(=O)O)C(c3ccccc3)c3ccccc3)cc2)CCN(CC(=O)[O-])CC1.[68Ga+3] [[^68Ga]Ga-P19] | 99.8 | 99.5 | 99.5 | 99.6 | – | – | more than 1.6 times | – | 2.0 % ID/g | – | – | more than 1.5 times | up to 7 times | 9.0 ± 2.3 | 0.85 ± 0.36 | 3.5 | 0.85 ± 0.02
